These results are taken from patent publication US8173133B2, “Acyl pseudodipeptides which carry a functionalized auxiliary arm” (OM Pharma, priority 1999, dated 2012).

Several values for one entry are separate records, joined by “and”; a condition that tells them apart may be missing. Identical values can stand only once.

Series [1] is described as follows: pyrogenicity in the rabbit model. The class given is in vivo, New Zealand white rabbits. The following applies: for response in ° C. average (individual values): 3 rabbits.
Experimental: 15 New Zealand white rabbits are divided into the following groups: • Group 1: 1.0 mg/kg • Group 2: 0.1 mg/kg • Group 3: 0.01 mg/kg • Group 4: 0.001 mg/kg • Group 5: water for injection
On the day of testing, rabbits are tightly held and weighed in boxes designed for this purpose. Temperature probes are inserted in the rectum are
1 hour after probe insertion, temperatures (preinjection) are recorded for 90 minutes and the mean value is calculated.
Each rabbit is then administered an i.v. injection of product or control (sterile water in 0.9% NaCl) via the marginal (lateral) ear vein. Temperature is measured at 30 minute intervals for 3 hours. Difference between the preinjection average temperature and maximum temperature is calculated and reported.
If the result obtained lies in-between, the test is repeated with 3 more rabbits.
For series [2], the system named is K562 cells. Description: activation of NK cell cytotoxicity against K562 target cells (LDH release). It is filed as cell-based, human. How it is done: PBMC were recovered from buffy coats according to the procedure previously described in example 4.6. […] Cells were incubated under such conditions for 24 hours. K562 cells (human leukemia cell line, ATCC #CCL 243, 20110-2209 Manassas (Va.), U.S.A.) were maintained in culture using RPMI medium containing 10% FCS and subjected to 2 passages per week.
In order to make cytotoxicity measurement, PBMC and K562 cells were washed twice in HBSS and resuspended in Phenol Red-free RPMI medium containing 5% FCS. PBMC were divided into a round bottom 96-well plate so as to achieve a PBMC/target ratio of 20/1, 10/1 and 5/1 in 50 μl volume. 5000 K562 cells (target) were added in each well using 50 μl of Phenol Red-free RPMI. Final volume was 100 μl. The plate was centrifuged to promote contact then incubated at 37° C. for 4 hours.
Cytotoxicity was assayed using a non radioactive CytoTox 96 kit based on measuring LDH release during cell lysis (kit #G1780, batch #124100, Promega, Madison, Wis.) according to the supplier's instructions.
The percentage of cytotoxicity was calculated according to the following equation: […]

Regarding `CCCCCCCCCCCC(=O)O[C@H](CCCCCCCCCCC)CC(=O)N[C@H](CC(=O)O)C(=O)NCCC[C@H](COP(=O)(O)O)NC(=O)C[C@H](O)CCCCCCCCCCC` [OM-197-MC-MP, N—[(R)-3-dodecanoyloxytetradecanoyl]-D-aspartic acid, α-N-{(4R)-5-dihydroxyphosphoryloxy-4-[(R)-3-hydroxytetradecanoyl-amino]pentyl}amide], the “pyrogenicity Results” value in series [1] (0.001 mg/Kg i.v.) was “non pyrogenic”; in series [1] (0.01 mg/Kg i.v.), “non pyrogenic”; in series [1] (0.1 mg/Kg i.v.), “pyrogenic”; in series [1] (1 mg/Kg i.v.), “pyrogenic”. Besides, the “response in ° C. average (individual values)” value in series [1] (0.001 mg/Kg i.v.) is 0.35 (0.10, 0.05, 0.20) ° C. and 0.25 (0.00, 0.10, 0.15) ° C; in series [1] (0.01 mg/Kg i.v.), 0.65 (0.00, 0.45, 0.20) ° C. and 0.35 (0.20, 0.15, 0.00) ° C; in series [1] (0.1 mg/Kg i.v.), 2.00 (1.45, 0.05, 0.50) ° C. and 2.85 (1.10, 1.20, 0.55) ° C; in series [1] (1 mg/Kg i.v.), 3.40 (1.50, 0.60, 1.30) ° C. and 3.25 (1.25, 1.45, 0.55) ° C.
With `CCCCCCCCCCCC(=O)O[C@H](CCCCCCCCCCC)CC(=O)NC(CCOP(=O)(O)O)C(=O)NCCCC(COC(=O)CCCCC(O)CO)NC(=O)C[C@H](O)CCCCCCCCCCC` (stereo partly drawn) [OM-197-FV6, 3-[(R)-dodecanoyloxytetradecanoylamino]-4oxo-5-aza-9-[(R)-3-hydroxytetradecanoylamino]-decan-1,10-diol 1-dihydrogenphate 10-(6,7-dihydroxyheptanoate)], the “NK activity level” value in series [2] (1 μg/ml) was “comparable or slightly inferior to that induced by LPS”. The “% cytotoxicity” value in series [2] (Ratio PBMC:K562 5.1) is given as 0%; in series [2] (Ratio PBMC:K562 10.1) it was 12.9%; in series [2] (Ratio PBMC:K562 20.1), 38.8%. The entries for the “Optical density at 490 nm, K562 + PBMC” value in series [2] (Ratio PBMC:K562 5.1), in series [2] (Ratio PBMC:K562 10.1) and in series [2] (Ratio PBMC:K562 20.1) were 1.4, 1.65 and 2.1, respectively. Besides, the “Optical density at 490 nm, PBMC alone” value is 0.079 in series [2] (Ratio PBMC:K562 5.1); 0.087 in series [2] (Ratio PBMC:K562 10.1); 0.11 in series [2] (Ratio PBMC:K562 20.1, stimulus 24 hours).
